From ChEMBL document CHEMBL3872261, “Coumarins and other fused bicyclic heterocycles with selective tumor-associated carbonic anhydrase isoforms inhibitory activity” (Bioorg Med Chem, 2017)
pKi: −log10 of the molar value.

target: Carbonic anhydrase 1 (Homo sapiens, UniProt P00915); assay: Inhibition of human recombinant carbonic anhydrase-1 preincubated for 6 hrs by stopped-flow CO2 hydration assay
Sequence (P00915 whole entry): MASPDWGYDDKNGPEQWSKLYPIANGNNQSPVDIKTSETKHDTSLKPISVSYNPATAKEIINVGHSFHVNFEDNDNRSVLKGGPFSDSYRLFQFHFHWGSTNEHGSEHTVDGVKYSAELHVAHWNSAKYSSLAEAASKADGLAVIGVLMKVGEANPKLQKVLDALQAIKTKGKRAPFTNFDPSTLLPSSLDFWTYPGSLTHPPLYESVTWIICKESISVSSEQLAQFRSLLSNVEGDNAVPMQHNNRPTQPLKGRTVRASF

| Compound | pKi |
| --- | --- |
| O=c1[nH]c(=O)c2cc([N+](=O)[O-])ccc2[nH]1 | < 3.30 |
| O=C(Nc1ccccc1C(=O)Nc1ccc2c(C(F)(F)F)cc(=O)oc2c1)c1ccc(Cl)cc1 | < 3.30 |
| O=C(Nc1ccccc1C(=O)Nc1ccc2c(C(F)(F)F)cc(=O)oc2c1)c1ccc(F)cc1 | < 3.30 |
| CC1=Nc2ccccc2S(=O)(=O)N1 | 4.86 |
| O=S1(=O)NC=Nc2ccccc21 | 4.90 |
| O=C(Nc1ccccc1C(=O)Nc1ccc2c(C(F)(F)F)cc(=O)oc2c1)c1ccccc1 | < 3.30 |

More lines, now with the values ahead:

| pKi | Compound |
| --- | --- |
| < 3.30 | Cc1cc(=O)oc2cc(NC(=O)c3ccccc3NC(=O)c3ccc(F)cc3)ccc12 |
| 6.11 | O=C1Nc2ccccc2S(=O)(=O)N1 |
| < 3.30 | Cc1cc(=O)oc2cc(NC(=O)c3ccccc3NC(=O)c3ccccc3)ccc12 |
| < 3.30 | Cc1cc(=O)oc2cc(NC(=O)c3ccccc3NC(=O)c3ccc(Cl)cc3)ccc12 |

target: Carbonic anhydrase 2 (Homo sapiens, UniProt P00918); assay: Inhibition of human recombinant carbonic anhydrase-2 preincubated for 6 hrs by stopped-flow CO2 hydration assay

| Compound | pKi |
| --- | --- |
| O=c1[nH]c(=O)c2cc([N+](=O)[O-])ccc2[nH]1 | < 3.30 |
| O=C(Nc1ccccc1C(=O)Nc1ccc2c(C(F)(F)F)cc(=O)oc2c1)c1ccc(Cl)cc1 | < 3.30 |
| O=C(Nc1ccccc1C(=O)Nc1ccc2c(C(F)(F)F)cc(=O)oc2c1)c1ccc(F)cc1 | < 3.30 |
| CC1=Nc2ccccc2S(=O)(=O)N1 | 6.19 |
| O=c1[nH]cnc2ccccc12 [QUINAZOLINONE] | < 3.30 |
| O=S1(=O)NC=Nc2ccccc21 | 6.42 |
| O=C(Nc1ccccc1C(=O)Nc1ccc2c(C(F)(F)F)cc(=O)oc2c1)c1ccccc1 | < 3.30 |

Other lines, results leading:

| pKi | Compound |
| --- | --- |
| < 3.30 | Cc1cc(=O)oc2cc(NC(=O)c3ccccc3NC(=O)c3ccc(F)cc3)ccc12 |
| 6.90 | O=C1Nc2ccccc2S(=O)(=O)N1 |
| < 3.30 | Cc1cc(=O)oc2cc(NC(=O)c3ccccc3NC(=O)c3ccccc3)ccc12 |
| < 3.30 | Cc1cc(=O)oc2cc(NC(=O)c3ccccc3NC(=O)c3ccc(Cl)cc3)ccc12 |

target: Carbonic anhydrase 9 (Homo sapiens, UniProt Q16790); assay: Inhibition of human recombinant carbonic anhydrase-9 preincubated for 6 hrs by stopped-flow CO2 hydration assay

| Compound | pKi |
| --- | --- |
| O=c1[nH]c(=O)c2cc([N+](=O)[O-])ccc2[nH]1 | 5.26 |
| O=C(Nc1ccccc1C(=O)Nc1ccc2c(C(F)(F)F)cc(=O)oc2c1)c1ccc(Cl)cc1 | 7.61 |
| O=C(Nc1ccccc1C(=O)Nc1ccc2c(C(F)(F)F)cc(=O)oc2c1)c1ccc(F)cc1 | 7.70 |
| CC1=Nc2ccccc2S(=O)(=O)N1 | 6.46 |
| O=c1[nH]cnc2ccccc12 [QUINAZOLINONE] | 4.80 |
| O=S1(=O)NC=Nc2ccccc21 | 6.94 |
| O=C(Nc1ccccc1C(=O)Nc1ccc2c(C(F)(F)F)cc(=O)oc2c1)c1ccccc1 | 7.96 |

More lines, now with the values ahead:

| pKi | Compound |
| --- | --- |
| 7.82 | Cc1cc(=O)oc2cc(NC(=O)c3ccccc3NC(=O)c3ccc(F)cc3)ccc12 |
| 7.06 | O=C1Nc2ccccc2S(=O)(=O)N1 |
| 7.67 | Cc1cc(=O)oc2cc(NC(=O)c3ccccc3NC(=O)c3ccccc3)ccc12 |
| 7.74 | Cc1cc(=O)oc2cc(NC(=O)c3ccccc3NC(=O)c3ccc(Cl)cc3)ccc12 |

target: Carbonic anhydrase 12 (Homo sapiens, UniProt O43570); assay: Inhibition of human recombinant carbonic anhydrase-12 preincubated for 6 hrs by stopped-flow CO2 hydration assay
Sequence (O43570 whole entry): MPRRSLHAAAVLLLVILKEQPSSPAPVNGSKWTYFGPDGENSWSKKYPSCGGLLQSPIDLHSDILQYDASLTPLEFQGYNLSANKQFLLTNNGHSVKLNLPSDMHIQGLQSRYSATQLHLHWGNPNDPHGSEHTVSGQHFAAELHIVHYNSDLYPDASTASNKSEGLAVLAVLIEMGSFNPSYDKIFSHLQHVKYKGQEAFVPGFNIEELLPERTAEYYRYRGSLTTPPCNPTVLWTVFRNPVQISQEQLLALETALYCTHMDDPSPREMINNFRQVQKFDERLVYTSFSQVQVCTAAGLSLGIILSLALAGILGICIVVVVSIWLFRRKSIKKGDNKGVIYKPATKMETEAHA

| Compound | pKi |
| --- | --- |
| O=c1[nH]cnc2ccccc12 [QUINAZOLINONE] | 4.98 |
